Where “and” joins values, the source holds several entries; their conditions need not be identical. Equal values may be shown once. Toxic doses and inconclusive results are not listed. How the source made its calls: active means survival T/C of 150% or more; inactive means T/C below 125% in these data.
Test system: CD2F1 mice, L1210 leukemia ip, survival T/C
Assay: NCI In Vivo Anticancer Drug Screen. Data for tumor model L1210 Leukemia (intraperitoneal) in CD2F1 (CDF1) mice
Settings: endpoint: mean survival time, higher = longer survival
Procedure, shortened: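 Vehicle-treated tumor-bearing mice served as controls (C) for compound-treated mice (T). Reported figure is T divided by C.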

[1] = dose: 50.0 mg/kg/injection, schedule: Q01DX001 (ip), vehicle: saline with Tween-80
[2] = dose: 100.0 mg/kg/injection, schedule: Q01DX001 (ip), vehicle: saline with Tween-80
[3] = dose: 200.0 mg/kg/injection, schedule: Q01DX001 (ip), vehicle: saline with Tween-80
[4] = dose: 100.0 mg/kg/injection, schedule: Q01DX009 (ip), vehicle: saline with Tween-80
[5] = dose: 200.0 mg/kg/injection, schedule: Q01DX009 (ip), vehicle: saline with Tween-80
[6] = dose: 400.0 mg/kg/injection, schedule: Q01DX009 (ip), vehicle: saline with Tween-80
[7] = dose: 50.0 mg/kg/injection, schedule: Q01DX009 (ip), vehicle: Klucel (hydroxypropylcellulose) (HPC)
[8] = dose: 100.0 mg/kg/injection, schedule: Q01DX009 (ip), vehicle: Klucel (hydroxypropylcellulose) (HPC)
[9] = dose: 200.0 mg/kg/injection, schedule: Q01DX009 (ip), vehicle: Klucel (hydroxypropylcellulose) (HPC)
[10] = dose: 50.0 mg/kg/injection, schedule: Q04DX003 (ip), vehicle: saline with Tween-80
[11] = dose: 100.0 mg/kg/injection, schedule: Q04DX002 (ip), vehicle: saline with Tween-80
[12] = dose: 100.0 mg/kg/injection, schedule: Q04DX003 (ip), vehicle: saline with Tween-80
[13] = dose: 200.0 mg/kg/injection, schedule: Q04DX002 (ip), vehicle: saline with Tween-80
[14] = dose: 400.0 mg/kg/injection, schedule: Q04DX002 (ip), vehicle: saline with Tween-80
[15] = dose: 400.0 mg/kg/injection, schedule: Q04DX003 (ip), vehicle: saline with Tween-80
[16] = dose: 200.0 mg/kg/injection, schedule: Q04DX003 (ip), vehicle: saline with Tween-80
[17] = dose: 12.5 mg/kg/injection, schedule: Q04DX003 (ip), vehicle: saline with Tween-80
[18] = dose: 25.0 mg/kg/injection, schedule: Q04DX003 (ip), vehicle: saline with Tween-80

Measured: T/C

C/C(=N\Nc1ccc([N+](=O)[O-])cc1[N+](=O)[O-])C1CCC(=O)O1 (stereo not given)
inactive: [1] 109 % of control | [2] 103 % of control | [3] 103 % of control

OCC1OC(n2ncc3c(N/N=C/c4ccc(N(CCCl)CCCl)cc4)ncnc32)C(O)C1O (stereo not given)
inactive: dose: 25.0 mg/kg/injection, schedule: Q01DX009 (ip), vehicle: saline with Tween-80 102 % of control | dose: 50.0 mg/kg/injection, schedule: Q01DX009 (ip), vehicle: saline with Tween-80 93 % of control | [4] 102 % of control | [5] 89 % of control | [6] 93 % of control

CC(C)C(C)/C=C\C(C)C1CCC2C3=CC=C4CC(OC(=O)c5ccccc5)CCC4(C)C3=CCC21C (stereo not given)
inactive: [7] 93 % of control | [8] 110 % of control | [9] 96 % of control

Oc1c(Cl)cc(C(c2cc(Cl)c(O)c(Cl)c2)C(c2cc(Cl)c(O)c(Cl)c2)c2cc(Cl)c(O)c(Cl)c2)cc1Cl
inactive: dose: 12.5 mg/kg/injection, schedule: Q01DX009 (ip), vehicle: Klucel (hydroxypropylcellulose) (HPC) 95 % of control | dose: 25.0 mg/kg/injection, schedule: Q01DX009 (ip), vehicle: Klucel (hydroxypropylcellulose) (HPC) 97 % of control | [7] 103 % of control | [8] 106 % of control | [9] 115 % of control | dose: 400.0 mg/kg/injection, schedule: Q01DX009 (ip), vehicle: Klucel (hydroxypropylcellulose) (HPC) 96 % of control

CCCCCCCCCCCC(=O)NC(=S)Nc1cc(Cl)ccc1Cl
inactive: [1] 89 % of control | [10] 92 % of control | [2] 89 % of control | [4] 86 % of control and 94 % of control | [11] 98 % of control | [12] 92 % of control | [3] 92 % of control | [5] 86 % of control and 92 % of control | [13] 98 % of control | [14] 98 % of control | [15] 86 % of control

O=C(O)CN1C(=O)CNC12CCCCC2
inactive: dose: 100.0 mg/kg/injection, schedule: Q04DX003 (ip), vehicle: other 102 % of control | dose: 200.0 mg/kg/injection, schedule: Q04DX003 (ip), vehicle: other 88 % of control | dose: 400.0 mg/kg/injection, schedule: Q04DX003 (ip), vehicle: other 104 % of control

CCCCNC(=O)C1C=C2c3cccc4c3C(CN4)CC2N(C)C1 (stereo not given)
inactive: [10] 88 % of control | [12] 91 % of control | [16] 96 % of control

N#C/C(=C/c1ccc(Cl)cc1)C(N)=O
inactive: dose: 12.5 mg/kg/injection, schedule: Q04DX003 (ip), vehicle: Klucel (hydroxypropylcellulose) (HPC) 96 % of control and 98 % of control | dose: 25.0 mg/kg/injection, schedule: Q04DX003 (ip), vehicle: Klucel (hydroxypropylcellulose) (HPC) 93 % of control and 95 % of control | dose: 50.0 mg/kg/injection, schedule: Q04DX003 (ip), vehicle: Klucel (hydroxypropylcellulose) (HPC) 100 % of control and 104 % of control | [2] 121 % of control | dose: 100.0 mg/kg/injection, schedule: Q04DX003 (ip), vehicle: Klucel (hydroxypropylcellulose) (HPC) 100 % of control and 101 % of control | [3] 111 % of control | dose: 400.0 mg/kg/injection, schedule: Q01DX001 (ip), vehicle: saline with Tween-80 101 % of control

N=Cc1c(O)n(-c2ccccc2)c(=O)[nH]c1=O
inactive: [4] 101 % of control | [12] 94 % of control | [5] 101 % of control | [16] 92 % of control | [6] 104 % of control | [15] 97 % of control

O=c1cc(-c2ccc(S(=O)(=O)F)cc2)[nH]c2ccc([N+](=O)[O-])cc12
inactive: dose: 100.0 mg/kg/injection, schedule: Q01DX001 (ip), vehicle: Klucel (hydroxypropylcellulose) (HPC) 108 % of control | dose: 200.0 mg/kg/injection, schedule: Q01DX001 (ip), vehicle: Klucel (hydroxypropylcellulose) (HPC) 101 % of control | dose: 400.0 mg/kg/injection, schedule: Q01DX001 (ip), vehicle: Klucel (hydroxypropylcellulose) (HPC) 112 % of control

Cc1cc(CC(Cl)(C(F)(F)F)C(F)(F)F)cc(CC(Cl)(C(F)(F)F)C(F)(F)F)n1
inactive: [17] 97 % of control | [18] 97 % of control | [10] 97 % of control

CC(=N\O)/C(C)=N/O.CC(=N\O)/C(C)=N/O.CCCC1CC[N-]CC1.CCCC1CC[N-]CC1.CCCC1CC[N-]CC1.CCCC1CC[N-]CC1.[Cl-].[Cl-].[Cl][Rh][Cl].[Rh+3]
inactive: dose: 6.25 mg/kg/injection, schedule: Q01DX009 (ip), vehicle: water 97 % of control | dose: 6.25 mg/kg/injection, schedule: Q04DX003 (ip), vehicle: water 86 % of control | dose: 12.5 mg/kg/injection, schedule: Q04DX003 (ip), vehicle: water 94 % of control | dose: 25.0 mg/kg/injection, schedule: Q01DX009 (ip), vehicle: water 88 % of control | dose: 25.0 mg/kg/injection, schedule: Q04DX003 (ip), vehicle: water 86 % of control

CCOC(=O)CC(=O)C(F)(F)F.[Cu+2]
inactive: dose: 2.5 mg/kg/injection, schedule: Q01DX009 (ip), vehicle: saline with Tween-80 98 % of control | dose: 5.0 mg/kg/injection, schedule: Q01DX009 (ip), vehicle: saline with Tween-80 98 % of control | dose: 10.0 mg/kg/injection, schedule: Q01DX009 (ip), vehicle: saline with Tween-80 95 % of control

Nc1nc(N)c(-c2ccc(Cl)cc2)c(/C=C/C=C/c2ccc([N+](=O)[O-])cc2)n1
inactive: [1] 97 % of control | [2] 92 % of control | [3] 101 % of control

O=C(O)Cc1cc2c(cc1I)OCO2
inactive: [12] 100 % of control | [16] 95 % of control | [15] 101 % of control

O=C(NC1=C(N2CC2)C(=O)C(NC(=O)OCCO)=C(N2CC2)C1=O)OCCO
inactive: dose: 0.18 mg/kg/injection, schedule: Q01DX009 (ip), vehicle: saline 109 % of control and 112 % of control | dose: 0.39 mg/kg/injection, schedule: Q01DX009 (ip), vehicle: saline 113 % of control and 104 % of control | dose: 0.75 mg/kg/injection, schedule: Q01DX009 (ip), vehicle: saline 117 % of control and 120 % of control

COC(=O)/C=C\C(=O)O
inactive: dose: 50.0 mg/kg/injection, schedule: Q01DX009 (ip), vehicle: saline 102 % of control | dose: 100.0 mg/kg/injection, schedule: Q01DX009 (ip), vehicle: saline 100 % of control

CC1C2C=CC1C(c1c3ccc(=O)cc-3oc3cc(O)ccc13)C2C(=O)O (stereo not given)
inactive: [12] 103 % of control | [16] 97 % of control | [15] 111 % of control

O=C(O)c1ccc(Cl)cc1Nc1ccc(Cl)cc1
inactive: [17] 97 % of control | [18] 100 % of control | [10] 107 % of control | [12] 98 % of control

O=c1[nH]c(=O)n2c3c1nnn3CC1OC2C(O)C1O (stereo not given)
inactive: dose: 12.5 mg/kg/injection, schedule: Q01DX005 (ip), vehicle: water 93 % of control | dose: 25.0 mg/kg/injection, schedule: Q01DX005 (ip), vehicle: water 93 % of control | dose: 50.0 mg/kg/injection, schedule: Q01DX005 (ip), vehicle: water 95 % of control | dose: 100.0 mg/kg/injection, schedule: Q01DX005 (ip), vehicle: water 89 % of control | dose: 200.0 mg/kg/injection, schedule: Q01DX005 (ip), vehicle: water 95 % of control

O=S(=O)(Cl)OC(CCl)C(OS(=O)(=O)Cl)C(OS(=O)(=O)Cl)C(CCl)OS(=O)(=O)Cl (stereo not given)
inactive: [4] 92 % of control | [5] 100 % of control | [6] 100 % of control

CCCCCCCCCCCCOP(OCCCCCCCCCCCC)OCCCCCCCCCCCC
inactive: dose: 100.0 mg/kg/injection, schedule: Q04DX003 (ip), vehicle: alcohol 102 % of control | dose: 200.0 mg/kg/injection, schedule: Q04DX003 (ip), vehicle: alcohol 96 % of control | dose: 400.0 mg/kg/injection, schedule: Q04DX003 (ip), vehicle: alcohol 98 % of control

Oc1ccc(O)c(CCCCCc2cc(O)ccc2O)c1
inactive: dose: 100.0 mg/kg/injection, schedule: Q01DX009 (ip), vehicle: other 102 % of control | dose: 200.0 mg/kg/injection, schedule: Q01DX009 (ip), vehicle: other 98 % of control

CC(=O)Nc1ccc(/C=C2\N=C(c3cccc(Cl)c3)OC2=O)cc1
inactive: [11] 90 % of control | [13] 98 % of control | [14] 105 % of control
